In patent US9738634B2, “Heterocyclic amide compound and herbicide” (SYNGENTA PARTICIPATIONS AG, priority 2013, dated 2017):

What was measured:
Assay type in all cases: in vivo
Conditions in all cases: treatment dosage 320 g/ha
barnyard grass [1] = assay: Test Example 1: weedkilling efficacy, preemergent weed treatment in the submerged state; A: barnyard grass
Outline: (§1)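 Submerged pre-emergence treatment, water-surface application of compound emulsion at g/ha dosages; 4 cm flooded alluvial soil, weeds sown and 2.5-leaf rice transplanted same day. Rated after 3 weeks, greenhouse.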

bulrush [2] = assay: Test Example 1: weedkilling efficacy, preemergent weed treatment in the submerged state; B: bulrush
Outline: as §1

oval-leafed pondweed [3] = assay: Test Example 1: weedkilling efficacy, preemergent weed treatment in the submerged state; C: oval-leafed pondweed
Outline: as §1

transplanted rice = assay: Test Example 1: preemergent weed treatment in the submerged state, effect on crop; a: transplanted rice
Outline: as §1

barnyard grass [4] = assay: Test Example 2: weedkilling efficacy, growth period weed treatment in the submerged state; A: barnyard grass
Outline: (§2)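 Seedlings at 1-2 leaves in 4 cm-deep submerged alluvial soil received emulsion formulations on the water surface, dosed per hectare; effects were judged 3 weeks on.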

bulrush [5] = assay: Test Example 2: weedkilling efficacy, growth period weed treatment in the submerged state; B: bulrush
Outline: as §2

oval-leafed pondweed [6] = assay: Test Example 2: weedkilling efficacy, growth period weed treatment in the submerged state; C: oval-leafed pondweed
Outline: as §2

crabgrass [7] = assay: Test Example 3: weedkilling efficacy through soil treatment; D: crabgrass
Outline: (§3)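 Crop and weed responses were judged three weeks after a uniform surface spray of the water-diluted emulsion at the given g/ha rate. Seeds sat beneath about 1.5 cm of sterilized diluvial soil, and boxes stood in a greenhouse at 25 to 30° C.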

green foxtail [8] = assay: Test Example 3: weedkilling efficacy through soil treatment; E: green foxtail
Outline: as §3

barnyard grass [9] = assay: Test Example 3: weedkilling efficacy through soil treatment; F: barnyard grass
Outline: as §3

wild oat [10] = assay: Test Example 3: weedkilling efficacy through soil treatment; G: wild oat
Outline: as §3

black-grass [11] = assay: Test Example 3: weedkilling efficacy through soil treatment; H: black-grass
Outline: as §3

Italian ryegrass [12] = assay: Test Example 3: weedkilling efficacy through soil treatment; I: Italian ryegrass
Outline: as §3

common wind-grass [13] = assay: Test Example 3: weedkilling efficacy through soil treatment; J: common wind-grass
Outline: as §3

Indian mallow [14] = assay: Test Example 3: weedkilling efficacy through soil treatment; K: Indian mallow
Outline: as §3

redroot pigweed [15] = assay: Test Example 3: weedkilling efficacy through soil treatment; L: redroot pigweed
Outline: as §3

fig-leafed goosefoot [16] = assay: Test Example 3: weedkilling efficacy through soil treatment; M: fig-leafed goosefoot
Outline: as §3

chickweed [17] = assay: Test Example 3: weedkilling efficacy through soil treatment; N: chickweed
Outline: as §3

catchweed [18] = assay: Test Example 3: weedkilling efficacy through soil treatment; O: catchweed
Outline: as §3

birds-eye speedwell [19] = assay: Test Example 3: weedkilling efficacy through soil treatment; p: birds-eye speedwell
Outline: as §3

directly sown rice [20] = assay: Test Example 3: soil treatment, effect on crop; b: directly sown rice
Outline: as §3

corn [21] = assay: Test Example 3: soil treatment, effect on crop; c: corn
Outline: as §3

soybean [22] = assay: Test Example 3: soil treatment, effect on crop; d: soybean
Outline: as §3

wheat [23] = assay: Test Example 3: soil treatment, effect on crop; e: wheat
Outline: as §3

beet [24] = assay: Test Example 3: soil treatment, effect on crop; f: beet
Outline: as §3

rapeseed [25] = assay: Test Example 3: soil treatment, effect on crop; g: rapeseed
Outline: as §3

crabgrass [26] = assay: Test Example 4: weedkilling efficacy by foliar treatment; D: crabgrass
Outline: (§4)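 Seeds are spot-sown into sterilized diluvial soil and covered with about 1.5 cm of soil. After 14 days' greenhouse growth at 25 to 30° C, plants are sprayed on stems and leaves with diluted emulsion at the stated g/ha rate, then scored at 3 weeks.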

green foxtail [27] = assay: Test Example 4: weedkilling efficacy by foliar treatment; E: green foxtail
Outline: as §4

barnyard grass [28] = assay: Test Example 4: weedkilling efficacy by foliar treatment; F: barnyard grass
Outline: as §4

wild oat [29] = assay: Test Example 4: weedkilling efficacy by foliar treatment; G: wild oat
Outline: as §4

black-grass [30] = assay: Test Example 4: weedkilling efficacy by foliar treatment; H: black-grass
Outline: as §4

Italian ryegrass [31] = assay: Test Example 4: weedkilling efficacy by foliar treatment; I: Italian ryegrass
Outline: as §4

common wind-grass [32] = assay: Test Example 4: weedkilling efficacy by foliar treatment; J: common wind-grass
Outline: as §4

Indian mallow [33] = assay: Test Example 4: weedkilling efficacy by foliar treatment; K: Indian mallow
Outline: as §4

redroot pigweed [34] = assay: Test Example 4: weedkilling efficacy by foliar treatment; L: redroot pigweed
Outline: as §4

fig-leafed goosefoot [35] = assay: Test Example 4: weedkilling efficacy by foliar treatment; M: fig-leafed goosefoot
Outline: as §4

chickweed [36] = assay: Test Example 4: weedkilling efficacy by foliar treatment; N: chickweed
Outline: as §4

catchweed [37] = assay: Test Example 4: weedkilling efficacy by foliar treatment; O: catchweed
Outline: as §4

birds-eye speedwell [38] = assay: Test Example 4: weedkilling efficacy by foliar treatment; p: birds-eye speedwell
Outline: as §4

directly sown rice [39] = assay: Test Example 4: foliar treatment, effect on crop; b: directly sown rice
Outline: as §4

corn [40] = assay: Test Example 4: foliar treatment, effect on crop; c: corn
Outline: as §4

soybean [41] = assay: Test Example 4: foliar treatment, effect on crop; d: soybean
Outline: as §4

wheat [42] = assay: Test Example 4: foliar treatment, effect on crop; e: wheat
Outline: as §4

beet [43] = assay: Test Example 4: foliar treatment, effect on crop; f: beet
Outline: as §4

rapeseed [44] = assay: Test Example 4: foliar treatment, effect on crop; g: rapeseed
Outline: as §4

CC1=C(c2ccccc2)C(=O)N(C(C)(C)C(=O)Nc2cc(C)cc(F)n2)CO1 [B-2-38]
A (barnyard grass) weedkilling efficacy grade (barnyard grass [1]): 5 (weed kill ratio 90% or more, (practically complete withering))
B (bulrush) weedkilling efficacy grade (bulrush [2]): 5 (weed kill ratio 90% or more, (practically complete withering))
C (oval-leafed pondweed) weedkilling efficacy grade (oval-leafed pondweed [3]): 5 (weed kill ratio 90% or more, (practically complete withering))
a (transplanted rice) effect on crop grade (transplanted rice): 3 (weed kill ratio 40% or more, less than 70%)
A (barnyard grass) weedkilling efficacy grade (barnyard grass [4]): 5 (weed kill ratio 90% or more, (practically complete withering))
B (bulrush) weedkilling efficacy grade (bulrush [5]): 5 (weed kill ratio 90% or more, (practically complete withering))
C (oval-leafed pondweed) weedkilling efficacy grade (oval-leafed pondweed [6]): 5 (weed kill ratio 90% or more, (practically complete withering))
D (crabgrass) weedkilling efficacy grade (crabgrass [7]): 5 (weed kill ratio 90% or more, (practically complete withering))
E (green foxtail) weedkilling efficacy grade (green foxtail [8]): 5 (weed kill ratio 90% or more, (practically complete withering))
F (barnyard grass) weedkilling efficacy grade (barnyard grass [9]): 5 (weed kill ratio 90% or more, (practically complete withering))
G (wild oat) weedkilling efficacy grade (wild oat [10]): 5 (weed kill ratio 90% or more, (practically complete withering))
H (black-grass) weedkilling efficacy grade (black-grass [11]): 5 (weed kill ratio 90% or more, (practically complete withering))
I (Italian ryegrass) weedkilling efficacy grade (Italian ryegrass [12]): 5 (weed kill ratio 90% or more, (practically complete withering))
J (common wind-grass) weedkilling efficacy grade (common wind-grass [13]): 5 (weed kill ratio 90% or more, (practically complete withering))
K (Indian mallow) weedkilling efficacy grade (Indian mallow [14]): 1 (weed kill ratio 5% or more, less than 20%)
L (redroot pigweed) weedkilling efficacy grade (redroot pigweed [15]): 3 (weed kill ratio 40% or more, less than 70%)
M (fig-leafed goosefoot) weedkilling efficacy grade (fig-leafed goosefoot [16]): 4 (weed kill ratio 70% or more, less than 90%)
N (chickweed) weedkilling efficacy grade (chickweed [17]): 4 (weed kill ratio 70% or more, less than 90%)
O (catchweed) weedkilling efficacy grade (catchweed [18]): 5 (weed kill ratio 90% or more, (practically complete withering))
P (birds-eye speedwell) weedkilling efficacy grade (birds-eye speedwell [19]): 5 (weed kill ratio 90% or more, (practically complete withering))
b (directly sown rice) effect on crop grade (directly sown rice [20]): 5 (weed kill ratio 90% or more, (practically complete withering))
c (corn) effect on crop grade (corn [21]): 1 (weed kill ratio 5% or more, less than 20%)
d (soybean) effect on crop grade (soybean [22]): 4 (weed kill ratio 70% or more, less than 90%)
e (wheat) effect on crop grade (wheat [23]): 0 (weed kill ratio 5% or less (practically no effect))
f (beet) effect on crop grade (beet [24]): 4 (weed kill ratio 70% or more, less than 90%)
g (rapeseed) effect on crop grade (rapeseed [25]): 4 (weed kill ratio 70% or more, less than 90%)
D (crabgrass) weedkilling efficacy grade (crabgrass [26]): 5 (weed kill ratio 90% or more, (practically complete withering))
E (green foxtail) weedkilling efficacy grade (green foxtail [27]): 5 (weed kill ratio 90% or more, (practically complete withering))
F (barnyard grass) weedkilling efficacy grade (barnyard grass [28]): 5 (weed kill ratio 90% or more, (practically complete withering))
G (wild oat) weedkilling efficacy grade (wild oat [29]): 5 (weed kill ratio 90% or more, (practically complete withering))
H (black-grass) weedkilling efficacy grade (black-grass [30]): 5 (weed kill ratio 90% or more, (practically complete withering))
I (Italian ryegrass) weedkilling efficacy grade (Italian ryegrass [31]): 5 (weed kill ratio 90% or more, (practically complete withering))
J (common wind-grass) weedkilling efficacy grade (common wind-grass [32]): 5 (weed kill ratio 90% or more, (practically complete withering))
K (Indian mallow) weedkilling efficacy grade (Indian mallow [33]): 4 (weed kill ratio 70% or more, less than 90%)
L (redroot pigweed) weedkilling efficacy grade (redroot pigweed [34]): 4 (weed kill ratio 70% or more, less than 90%)
M (fig-leafed goosefoot) weedkilling efficacy grade (fig-leafed goosefoot [35]): 4 (weed kill ratio 70% or more, less than 90%)
N (chickweed) weedkilling efficacy grade (chickweed [36]): 4 (weed kill ratio 70% or more, less than 90%)
O (catchweed) weedkilling efficacy grade (catchweed [37]): 4 (weed kill ratio 70% or more, less than 90%)
P (birds-eye speedwell) weedkilling efficacy grade (birds-eye speedwell [38]): 4 (weed kill ratio 70% or more, less than 90%)
b (directly sown rice) effect on crop grade (directly sown rice [39]): 5 (weed kill ratio 90% or more, (practically complete withering))
c (corn) effect on crop grade (corn [40]): 5 (weed kill ratio 90% or more, (practically complete withering))
d (soybean) effect on crop grade (soybean [41]): 4 (weed kill ratio 70% or more, less than 90%)
e (wheat) effect on crop grade (wheat [42]): 1 (weed kill ratio 5% or more, less than 20%)
f (beet) effect on crop grade (beet [43]): 4 (weed kill ratio 70% or more, less than 90%)
g (rapeseed) effect on crop grade (rapeseed [44]): 4 (weed kill ratio 70% or more, less than 90%)
